Test results: article PMC6576746, “Rational discovery of dual-indication multi-target PDE/Kinase inhibitor for precision anti-cancer therapy using structural systems pharmacology” (PLoS Computational Biology, 2019)

Tests used:
Assay in all cases: biochemical
Parameters in all cases: DiscoverX KinomeScan competition binding assay across human kinases; per cent of control at 10 and 100 uM
[1] = target: PIKFYVE (Homo sapiens, UniProt Q9Y2I7); settings: competition binding, % of control; read-out: Percent Control (100 uM Levosimendan)
PIKFYVE, sequence (Q9Y2I7 whole entry): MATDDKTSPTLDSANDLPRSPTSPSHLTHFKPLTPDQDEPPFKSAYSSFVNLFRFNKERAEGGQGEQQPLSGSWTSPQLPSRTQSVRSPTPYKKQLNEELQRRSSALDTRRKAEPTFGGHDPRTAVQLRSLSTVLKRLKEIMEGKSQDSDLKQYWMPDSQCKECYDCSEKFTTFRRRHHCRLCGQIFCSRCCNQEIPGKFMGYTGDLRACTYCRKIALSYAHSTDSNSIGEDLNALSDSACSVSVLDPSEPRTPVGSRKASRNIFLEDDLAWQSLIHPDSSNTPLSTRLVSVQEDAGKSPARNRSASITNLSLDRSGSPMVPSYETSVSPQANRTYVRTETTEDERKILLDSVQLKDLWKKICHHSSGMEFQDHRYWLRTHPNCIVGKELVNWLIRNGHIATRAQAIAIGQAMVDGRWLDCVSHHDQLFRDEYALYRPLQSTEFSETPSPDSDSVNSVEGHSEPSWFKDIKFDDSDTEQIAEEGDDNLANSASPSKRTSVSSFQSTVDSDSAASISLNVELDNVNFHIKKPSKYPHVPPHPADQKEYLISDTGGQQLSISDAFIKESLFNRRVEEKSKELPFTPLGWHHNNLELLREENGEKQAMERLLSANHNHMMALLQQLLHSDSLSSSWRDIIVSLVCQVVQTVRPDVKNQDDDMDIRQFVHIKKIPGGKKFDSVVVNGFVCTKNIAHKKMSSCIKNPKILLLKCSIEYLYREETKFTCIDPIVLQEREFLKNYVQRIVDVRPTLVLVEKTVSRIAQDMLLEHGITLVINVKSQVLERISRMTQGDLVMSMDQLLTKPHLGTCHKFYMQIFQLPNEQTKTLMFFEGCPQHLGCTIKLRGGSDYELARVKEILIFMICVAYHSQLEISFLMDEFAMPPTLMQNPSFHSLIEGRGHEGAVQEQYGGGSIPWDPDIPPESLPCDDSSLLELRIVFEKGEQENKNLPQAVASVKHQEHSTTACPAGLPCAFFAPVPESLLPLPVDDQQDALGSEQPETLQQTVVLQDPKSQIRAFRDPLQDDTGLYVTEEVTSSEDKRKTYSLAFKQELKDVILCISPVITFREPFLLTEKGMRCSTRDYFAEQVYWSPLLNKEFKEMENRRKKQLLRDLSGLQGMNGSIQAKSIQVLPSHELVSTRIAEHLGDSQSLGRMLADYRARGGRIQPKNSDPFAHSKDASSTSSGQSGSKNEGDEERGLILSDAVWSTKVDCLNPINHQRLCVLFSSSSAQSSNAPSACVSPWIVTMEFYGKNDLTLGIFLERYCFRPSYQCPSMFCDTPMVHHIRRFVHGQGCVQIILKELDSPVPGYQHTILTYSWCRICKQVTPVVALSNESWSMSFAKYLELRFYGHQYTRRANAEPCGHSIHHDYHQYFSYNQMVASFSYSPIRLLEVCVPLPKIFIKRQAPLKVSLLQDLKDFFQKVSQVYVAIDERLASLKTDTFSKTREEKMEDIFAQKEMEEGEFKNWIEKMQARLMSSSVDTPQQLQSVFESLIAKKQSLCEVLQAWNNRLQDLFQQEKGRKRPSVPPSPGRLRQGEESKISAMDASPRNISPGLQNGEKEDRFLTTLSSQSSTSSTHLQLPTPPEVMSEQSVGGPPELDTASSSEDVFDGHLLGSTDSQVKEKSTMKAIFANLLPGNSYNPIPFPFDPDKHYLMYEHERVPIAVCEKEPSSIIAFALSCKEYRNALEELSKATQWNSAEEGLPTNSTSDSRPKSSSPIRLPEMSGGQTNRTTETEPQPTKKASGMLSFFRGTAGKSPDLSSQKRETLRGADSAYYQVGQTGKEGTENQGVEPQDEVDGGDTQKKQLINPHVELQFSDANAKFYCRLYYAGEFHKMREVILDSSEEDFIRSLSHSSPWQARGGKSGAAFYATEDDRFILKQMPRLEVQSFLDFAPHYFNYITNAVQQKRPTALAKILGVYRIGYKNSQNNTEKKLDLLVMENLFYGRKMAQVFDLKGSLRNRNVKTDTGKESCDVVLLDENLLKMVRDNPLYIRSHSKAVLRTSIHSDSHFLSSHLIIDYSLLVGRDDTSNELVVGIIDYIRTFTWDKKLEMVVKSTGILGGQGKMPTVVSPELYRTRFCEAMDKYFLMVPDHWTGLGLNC
Procedure, shortened: (§1)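 KinomeScan competition binding was run across a human kinase panel at 10 μM and 100 μM levosimendan. Results are %control = (test − positive control)/(negative control − positive control) × 100.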

[2] = target: ITK (Homo sapiens, UniProt Q08881); settings: competition binding, % of control; read-out: Percent Control (100 uM Levosimendan)
Procedure, shortened: as §1

[3] = target: NEK10 (Homo sapiens, UniProt Q6ZWH5); settings: competition binding, % of control; read-out: Percent Control (100 uM Levosimendan)
Procedure, shortened: as §1

[4] = target: T1, MEK3 (Homo sapiens, UniProt P46734); settings: competition binding, % of control; read-out: Percent Control (100 uM Levosimendan)
T1 construct: gene MAP2K3
Procedure, shortened: as §1

[5] = target: LCK (Homo sapiens, UniProt P06239); settings: competition binding, % of control
LCK, sequence (P06239 whole entry): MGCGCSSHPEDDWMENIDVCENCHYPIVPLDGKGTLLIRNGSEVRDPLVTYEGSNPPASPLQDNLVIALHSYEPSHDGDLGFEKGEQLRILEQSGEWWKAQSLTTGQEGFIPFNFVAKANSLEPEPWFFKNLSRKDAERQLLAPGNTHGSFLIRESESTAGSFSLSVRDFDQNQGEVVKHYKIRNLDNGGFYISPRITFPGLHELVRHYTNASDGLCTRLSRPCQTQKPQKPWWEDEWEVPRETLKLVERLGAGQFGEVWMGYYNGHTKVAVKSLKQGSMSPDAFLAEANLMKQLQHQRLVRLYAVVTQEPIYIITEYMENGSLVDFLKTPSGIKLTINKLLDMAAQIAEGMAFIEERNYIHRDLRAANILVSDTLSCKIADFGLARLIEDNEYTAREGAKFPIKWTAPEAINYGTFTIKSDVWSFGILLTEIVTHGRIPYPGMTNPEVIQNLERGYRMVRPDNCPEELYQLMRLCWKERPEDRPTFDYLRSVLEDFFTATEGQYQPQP
Procedure, shortened: as §1

[6] = target: MYLK2 (Homo sapiens, UniProt Q9H1R3); settings: competition binding, % of control; read-out: Percent Control (100 uM Levosimendan)
Procedure, shortened: as §1

[7] = target: T2, PIP5K2C (Homo sapiens, UniProt Q8TBX8); settings: competition binding, % of control
T2 construct: gene PIP4K2C
T2 sequence (Q8TBX8 whole entry): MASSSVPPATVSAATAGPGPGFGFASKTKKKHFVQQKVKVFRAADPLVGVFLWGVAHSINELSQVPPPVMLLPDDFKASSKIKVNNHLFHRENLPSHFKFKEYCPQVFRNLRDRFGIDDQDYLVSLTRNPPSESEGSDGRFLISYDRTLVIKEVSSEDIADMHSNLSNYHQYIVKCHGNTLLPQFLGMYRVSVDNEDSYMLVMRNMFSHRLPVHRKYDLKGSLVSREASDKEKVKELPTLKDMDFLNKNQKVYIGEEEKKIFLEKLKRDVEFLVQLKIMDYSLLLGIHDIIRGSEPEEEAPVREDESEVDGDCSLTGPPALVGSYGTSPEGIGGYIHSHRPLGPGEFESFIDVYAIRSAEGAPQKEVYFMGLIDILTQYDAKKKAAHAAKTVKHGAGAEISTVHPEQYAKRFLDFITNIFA
Procedure, shortened: as §1

[8] = target: T3, YSK1 (Homo sapiens, UniProt O00506); settings: competition binding, % of control; read-out: Percent Control (100 uM Levosimendan)
T3 construct: gene STK25
Procedure, shortened: as §1

[9] = target: LRRK2 (Homo sapiens, UniProt Q5S007); settings: competition binding, % of control; read-out: Percent Control (100 uM Levosimendan)
Procedure, shortened: as §1

[10] = target: T4, RPS6KA5(Kin.Dom.2-C-terminal) (Homo sapiens, UniProt O75582); settings: competition binding, % of control; read-out: Percent Control (100 uM Levosimendan)
T4 construct: Kin.Dom.2-C-terminal
Procedure, shortened: as §1

[11] = target: MAPKAPK2 (Homo sapiens, UniProt P49137); settings: competition binding, % of control; read-out: Percent Control (100 uM Levosimendan)
MAPKAPK2, sequence (P49137 whole entry): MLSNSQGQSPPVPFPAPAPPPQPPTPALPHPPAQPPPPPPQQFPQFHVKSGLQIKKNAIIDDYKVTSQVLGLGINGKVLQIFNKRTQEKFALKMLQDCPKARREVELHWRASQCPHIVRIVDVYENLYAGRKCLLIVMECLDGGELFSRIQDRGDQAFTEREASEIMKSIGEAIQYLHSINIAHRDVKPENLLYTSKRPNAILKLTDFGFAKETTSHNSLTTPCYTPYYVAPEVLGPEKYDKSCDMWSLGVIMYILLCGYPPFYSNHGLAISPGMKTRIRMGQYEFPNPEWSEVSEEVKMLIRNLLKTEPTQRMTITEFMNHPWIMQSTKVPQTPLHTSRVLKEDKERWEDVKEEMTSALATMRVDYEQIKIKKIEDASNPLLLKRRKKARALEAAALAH
Procedure, shortened: as §1

[12] = target: ANKK1 (Homo sapiens, UniProt Q8NFD2); settings: competition binding, % of control; read-out: Percent Control (100 uM Levosimendan)
Procedure, shortened: as §1

[13] = target: RET (Homo sapiens, UniProt P07949); settings: competition binding, % of control; read-out: Percent Control (100 uM Levosimendan)
Procedure, shortened: as §1

[14] = target: CAMK2A (Homo sapiens, UniProt Q9UQM7); settings: competition binding, % of control; read-out: Percent Control (100 uM Levosimendan)
Procedure, shortened: as §1

[15] = target: TTK (Homo sapiens, UniProt P33981); settings: competition binding, % of control; read-out: Percent Control (100 uM Levosimendan)
Procedure, shortened: as §1

[16] = target: NEK3 (Homo sapiens, UniProt P51956); settings: competition binding, % of control; read-out: Percent Control (100 uM Levosimendan)
NEK3, sequence (P51956 whole entry): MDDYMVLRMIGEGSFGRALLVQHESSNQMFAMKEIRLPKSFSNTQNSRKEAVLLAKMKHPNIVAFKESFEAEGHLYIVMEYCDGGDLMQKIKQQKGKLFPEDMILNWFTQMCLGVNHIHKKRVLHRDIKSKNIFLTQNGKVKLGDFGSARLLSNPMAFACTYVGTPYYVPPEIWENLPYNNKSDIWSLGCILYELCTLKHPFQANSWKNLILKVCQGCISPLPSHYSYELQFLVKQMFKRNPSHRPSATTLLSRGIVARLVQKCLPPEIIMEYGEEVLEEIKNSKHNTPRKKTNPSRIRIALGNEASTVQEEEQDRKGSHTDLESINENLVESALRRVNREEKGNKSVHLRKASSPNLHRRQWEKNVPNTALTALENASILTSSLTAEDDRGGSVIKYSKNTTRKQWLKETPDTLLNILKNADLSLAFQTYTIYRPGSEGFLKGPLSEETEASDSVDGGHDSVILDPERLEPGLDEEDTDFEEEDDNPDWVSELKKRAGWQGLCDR
Procedure, shortened: as §1

[17] = target: T5, PIP5K2B (Homo sapiens, UniProt P78356); settings: competition binding, % of control
T5 construct: gene PIP4K2B
T5 sequence (P78356 whole entry): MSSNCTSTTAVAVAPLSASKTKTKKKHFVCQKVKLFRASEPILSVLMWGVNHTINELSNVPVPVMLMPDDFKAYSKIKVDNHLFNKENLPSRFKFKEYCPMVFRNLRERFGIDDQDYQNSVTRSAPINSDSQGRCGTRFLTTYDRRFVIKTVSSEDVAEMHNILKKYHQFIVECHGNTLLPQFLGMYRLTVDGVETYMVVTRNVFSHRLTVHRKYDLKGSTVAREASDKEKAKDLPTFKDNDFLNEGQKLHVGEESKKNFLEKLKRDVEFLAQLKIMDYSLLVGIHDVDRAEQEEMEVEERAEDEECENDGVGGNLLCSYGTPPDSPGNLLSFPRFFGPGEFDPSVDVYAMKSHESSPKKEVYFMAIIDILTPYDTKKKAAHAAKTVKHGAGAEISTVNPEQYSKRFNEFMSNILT
Procedure, shortened: as §1

[18] = target: FYN (Homo sapiens, UniProt P06241); settings: competition binding, % of control
FYN, sequence (P06241 whole entry): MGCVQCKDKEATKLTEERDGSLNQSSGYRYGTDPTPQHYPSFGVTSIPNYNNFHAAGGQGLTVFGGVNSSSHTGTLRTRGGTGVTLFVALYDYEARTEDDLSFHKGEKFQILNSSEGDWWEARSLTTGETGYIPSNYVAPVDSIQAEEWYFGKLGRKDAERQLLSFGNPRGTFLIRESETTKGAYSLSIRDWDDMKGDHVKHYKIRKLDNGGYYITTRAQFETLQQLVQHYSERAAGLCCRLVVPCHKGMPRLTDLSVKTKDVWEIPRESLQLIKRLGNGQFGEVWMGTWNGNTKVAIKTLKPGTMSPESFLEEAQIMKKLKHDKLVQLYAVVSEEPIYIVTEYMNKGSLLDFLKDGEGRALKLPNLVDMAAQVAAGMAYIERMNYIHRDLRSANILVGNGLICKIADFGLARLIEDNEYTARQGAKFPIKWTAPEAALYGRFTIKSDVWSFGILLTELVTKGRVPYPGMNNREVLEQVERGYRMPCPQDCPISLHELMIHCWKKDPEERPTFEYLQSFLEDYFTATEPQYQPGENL
Procedure, shortened: as §1

[19] = target: T6, PKAC-alpha (Homo sapiens, UniProt P17612); settings: competition binding, % of control; read-out: Percent Control (100 uM Levosimendan)
T6 construct: gene PRKACA
Procedure, shortened: as §1

[20] = read-out: Percent Control (10 uM Levosimendan)
[21] = read-out: Percent Control (100 uM Levosimendan)

With `C[C@@H]1CC(=O)NN=C1c1ccc(NN=C(C#N)C#N)cc1` [levosimendan] the remaining binding at 100 µM [1] was 57%, the remaining binding at 100 µM [2] was 86% and the remaining binding at 100 µM [3] was 100%. For the same molecule, the remaining binding at 100 µM [4] was 57%, the remaining binding at 10 µM [5, 20] was 89% and the remaining binding at 100 µM [5, 21] was 46%. For the same molecule, the remaining binding at 100 µM [6] was 81%, the remaining binding at 10 µM [7, 20] was 52% and the remaining binding at 100 µM [7, 21] was 5.9%. The remaining binding at 100 µM [8] was 100%, the remaining binding at 100 µM [9] was 77% and the remaining binding at 100 µM [10] was 100%. It also gave a remaining binding at 100 µM [11] of 100%, a remaining binding at 100 µM [12] of 77% and a remaining binding at 100 µM [13] of 88%. The remaining binding at 100 µM [14] was 73%, the remaining binding at 100 µM [15] was 86% and the remaining binding at 100 µM [16] was 78%. For the same molecule, the remaining binding at 10 µM [17, 20] was 92%, the remaining binding at 100 µM [17, 21] was 14% and the remaining binding at 10 µM [18, 20] was 96%. It also gave a remaining binding at 100 µM [18, 21] of 47% and a remaining binding at 100 µM [19] of 94%.
